Read-outs that look alike come from different tables or passages of the source.
Assay: In vivo pharmacokinetic study in male ICR mice (compound alone)
Conditions: male, ICR, mouse, plasma
Procedure: The pharmacokinetics profile of the newly developed antiviral compound C5N17B was subsequently evaluated in male ICR mice that were free from specific pathogens, aiming to assess its potential for therapeutic application in vivo.
A total of six male ICR mice were randomly assigned to two groups. One group received the test drug intravenously at a dosage of 2 mg kg^−1, while the other group received oral administration at a dosage of 10 mg kg^−1. To prepare solutions of C5N17B, 2.39 mg compound was dissolved in a mixture of 0.119 mL DMSO, 0.238 mL polyoxyl 15 hydroxystearate (Solutol), and 2.027 mL normal saline. For the intravenous group, blood samples were collected from the sinus jugular into heparinized centrifugation tubes at various time points after dosing: 5, 15, 30 min, 1, 2, 4, 6, 8, and 24 h. As for the oral administration group, blood samples were collected at similar time points (0.05 mL of blood each time). The collected blood samples were then centrifuged at a speed of 4000 rpm for 10 min to separate plasma, which was subsequently stored at −20 °C until further LC‐MS analysis to determine the concentration of C5N17B. Briefly, the analysis involved adding 20 µL of plasma, sample calibration standard, quality control, and dilution quality control, and blank samples into respective wells on a 96‐well plate. Then each sample was quenched with 200 µL of internal standard (the blank sample was quenched with 200 µL of ACN: MeOH = 1:1), followed by vortex‐mixed for 5 min, and centrifuged for 0.5 min at 4000 rpm, 4 °C. Next, a 100 µL portion of supernatant was transferred to another clean 96‐well plate and diluted with 100 µL of water, vortex‐mixed for 5 min and centrifuged for 10 min at 4000 rpm, 4 °C, then the sample was injected for LC‐MS/MS analysis. All samples were quantified using an LC‐MS/MS‐AR Triple Quad 5500+ (SCIEX, USA) and the ExionLC liquid phase system. The mobile phase was 0.1% formic acid‐water/ACN with gradient elute at a flow rate of 0.8 mL mi^−1n (total time 2.20 min), and the detection wavelength was 225 nm. All blood samples were centrifuged using an Eppendorf 5424R centrifuge and quantified using an LC‐MS/MS‐AR Triple Quad 5500+ (SCIEX, USA). The pharmacokinetic parameters were calculated by WinNolin 8.2 software.

Q: Which results are given for `Cc1cncc(C(=O)N2C[C@H]3CC[C@@H](C2)N3[C@H](c2cccc(F)c2)c2cn(CCc3ccsc3)nn2)c1` [Compound C5N17B]?
A: AUC (iv, 2 mg/kg, i.v. 2 mg kg^−1, male ICR mice, n = 3, read-out: AUC0‐∞, i.v.): 65.9 ± 14.9 ng·h/mL; clearance (iv, 2 mg/kg, i.v. 2 mg kg^−1, male ICR mice, n = 3, read-out: CL, i.v. (converted)): 524 mL/min/kg; Cmax (iv, 2 mg/kg, i.v. 2 mg kg^−1, male ICR mice, n = 3, read-out: Cmax, i.v.): 237 ± 53.6 ng/mL; MRT (iv, 2 mg/kg, i.v. 2 mg kg^−1, male ICR mice, n = 3, read-out: MRT0‐t, i.v.): 5.81 ± 894 min; MRT (iv, 2 mg/kg, i.v. 2 mg kg^−1, male ICR mice, n = 3, read-out: MRT0‐∞, i.v.): 6.96 ± 0.391 min; Tmax (iv, 2 mg/kg, i.v. 2 mg kg^−1, male ICR mice, n = 3, read-out: Tmax, i.v.): 4.98 min; half-life (iv, 2 mg/kg, i.v. 2 mg kg^−1, male ICR mice, n = 3, read-out: t1/2, i.v. (converted)): 6.6 min; bioavailability (oral, 10 mg kg^−1, p.o. 10 mg kg^−1 vs i.v. 2 mg kg^−1, male ICR mice, read-out: F (oral bioavailability)): 13%; concentration at 5 min (oral, 10 mg/kg, PO 10 mg/kg (10MPK), 5 min, mean of mice 4#-6#, read-out: Plasma concentration, Mean): 40.6 ng/mL; concentration at 15 min (oral, 10 mg/kg, PO 10 mg/kg (10MPK), 15 min, mouse plasma, individual mice 4-6, read-out: Plasma concentration (Calculated Concentration)): 18 ng/mL; concentration at 30 min (oral, 10 mg/kg, PO 10 mg/kg (10MPK), 30 min, sample marked "re", individual mouse, read-out: Plasma concentration (Calculated Concentration), re-analysis): 4.52 ng/mL; concentration at 1 hr (oral, 10 mg/kg, PO 10 mg/kg (10MPK), 1 hr, samples marked "re", individual mice, read-out: Plasma concentration (Calculated Concentration), re-analysis): 7.4 ng/mL; concentration at 2 hr (oral, 10 mg/kg, PO 10 mg/kg (10MPK), 2 hr, sample marked "re", individual mouse, read-out: Plasma concentration (Calculated Concentration), re-analysis): 15.7 ng/mL; concentration at 4 h (oral, 10 mg/kg, PO 10 mg/kg (10MPK), 4 hr, mouse plasma, individual mice 4-6, read-out: Plasma concentration (Calculated Concentration)): 5.85 ng/mL; concentration at 6 h (oral, 10 mg/kg, PO 10 mg/kg (10MPK), 6 hr, mouse plasma, individual mice 4-6, read-out: Plasma concentration (Calculated Concentration)): 2.52 ng/mL; Tmax (po, 10 mg/kg, PO 10 mg/kg (10MPK), individual mice 4#-6#, read-out: Tmax): 5 min; half-life (po, 10 mg/kg, PO 10 mg/kg (10MPK), mean of mice 4#-6#, read-out: T1/2, Mean (converted)): 213 min; Tmax (po, 10 mg/kg, PO 10 mg/kg (10MPK), mean of mice 4#-6#, read-out: Tmax, Mean): 5 min; concentration at 0.5 h (po, 10 mg/kg, PO 10 mg/kg, 0.50 h, mean of mice 4#-6#, read-out: plasma concentration, Mean): 8.28 ng/mL; concentration at 1 h (po, 10 mg/kg, PO 10 mg/kg, 1 h, mean of mice 4#-6#): 7.2 ng/mL; concentration at 2 h (po, 10 mg/kg, PO 10 mg/kg, 2 h, mean of mice 4#-6#): 10.5 ng/mL; concentration at 4 h (po, 10 mg/kg, PO 10 mg/kg, 4 h, individual mice 4#-6#, read-out: plasma concentration): 5.85 ng/mL; concentration at 4 h (po, 10 mg/kg, PO 10 mg/kg, 4 h, mean of mice 4#-6#, read-out: plasma concentration, Mean): 5.98 ng/mL; concentration at 6 h (po, 10 mg/kg, PO 10 mg/kg, 6 h, individual mice 4#-6#, read-out: plasma concentration): 2.52 ng/mL; concentration at 6 h (po, 10 mg/kg, PO 10 mg/kg, 6 h, mean (only 5# quantifiable), read-out: plasma concentration, Mean): 2.52 ng/mL; AUC(0-t) (po, 10 mg/kg, PO 10 mg/kg, individual mice 4#-6#, read-out: AUC0-t): 30.4 ng·h/mL; AUC(0-inf) (po, 10 mg/kg, PO 10 mg/kg, individual mice 4#-6#, read-out: AUC0-∞): 59.6 ng·h/mL; bioavailability (po, 10 mg/kg, PO 10 mg/kg, individual mice 4#-6#, read-out: F): 9.56%; MRT last (po, 10 mg/kg, PO 10 mg/kg, individual mice 4#-6#, read-out: MRT0-t): 97.2 min; AUC(0-inf) (po, 10 mg/kg, PO 10 mg/kg, individual mice 4-6, read-out: AUCINF_obs): 59.6 ng·h/mL; AUC(0-inf) (po, 10 mg/kg, PO 10 mg/kg, individual mice 4-6, read-out: AUCINF_pred): 55 ng·h/mL; AUC (po, 10 mg/kg, PO 10 mg/kg, individual mice 4-6, read-out: AUCall): 30.4 ng·h/mL; AUC(0-t) (po, 10 mg/kg, PO 10 mg/kg, individual mice 4-6, read-out: AUClast): 30.4 ng·h/mL; CL/F (po, 10 mg/kg, PO 10 mg/kg, individual mice 4-6, read-out: Cl_F_obs (converted)): 2800 mL/min/kg; MRT last (po, 10 mg/kg, PO 10 mg/kg, individual mice 4-6, read-out: MRTlast): 97.3 min; Tmax (po, 10 mg/kg, PO 10 mg/kg, individual mice 4-6, read-out: Tmax): 5 min; AUC(0-t) (po, 10 mg/kg, PO 10 mg/kg, mean of mice 4#-6#, read-out: AUC0-t, Mean): 41.3 ng·h/mL; AUC(0-inf) (po, 10 mg/kg, PO 10 mg/kg, mean of mice 4#-6#, read-out: AUC0-∞, Mean): 71.9 ng·h/mL; Cmax (po, 10 mg/kg, PO 10 mg/kg, mean of mice 4#-6#, read-out: Cmax, Mean): 40.6 ng/mL; MRT last (po, 10 mg/kg, PO 10 mg/kg, mean of mice 4#-6#, read-out: MRT0-t, Mean): 107 min; MRT inf (po, 10 mg/kg, PO 10 mg/kg, mean of mice 4#-6#, read-out: MRT0-∞, Mean): 300 min; AUC (po, 10 mg/kg, p.o. 10 mg kg^−1, male ICR mice, n = 3, read-out: AUC0‐t, p.o.): 41.3 ± 9.5 ng·h/mL; AUC (po, 10 mg/kg, p.o. 10 mg kg^−1, male ICR mice, n = 3, read-out: AUC0‐∞, p.o.): 71.9 ± 26 ng·h/mL; Cmax (po, 10 mg/kg, p.o. 10 mg kg^−1, male ICR mice, n = 3, read-out: Cmax, p.o.): 40.6 ± 24.1 ng/mL; MRT (po, 10 mg/kg, p.o. 10 mg kg^−1, male ICR mice, n = 3, read-out: MRT0‐t, p.o.): 107 ± 8.7 min; MRT (po, 10 mg/kg, p.o. 10 mg kg^−1, male ICR mice, n = 3, read-out: MRT0‐∞, p.o.): 300 ± 108 min; Tmax (po, 10 mg/kg, p.o. 10 mg kg^−1, male ICR mice, n = 3, read-out: Tmax, p.o.): 4.8 min; half-life (po, 10 mg/kg, p.o. 10 mg kg^−1, male ICR mice, n = 3, read-out: t1/2, p.o. (converted)): 213 ± 72 min; Cmax (po, 10 mg/kg, p.o. 10 mg kg^−1, male ICR mice, read-out: Cmax, p.o.): 78.6 nM

Reference: article PMC11578313, “Miniaturized Modular Click Chemistry‐enabled Rapid Discovery of Unique SARS‐CoV‐2 M^pro Inhibitors With Robust Potency and Drug‐like Profile” (Advanced Science, 2024)
